Laboratory results reported in ChEMBL document CHEMBL5214960 (J Med Chem, 2022).

What was measured:
[1] = target: Tyrosine-protein phosphatase non-receptor type 13 (Homo sapiens, UniProt Q12923); assay: Inhibition of FAP-1(unknown origin)
[2] = Inhibition of PTP-Meg2 (unknown origin); parameters: species or system Homo sapiens
[3] = target: Tyrosine-protein phosphatase non-receptor type 22 (Homo sapiens, UniProt Q9Y2R2); assay: Inhibition of LYP (unknown origin)
[4] = target: Tyrosine-protein phosphatase non-receptor type 6 (Homo sapiens, UniProt P29350); assay: Inhibition of SHP1 (unknown origin)
[5] = target: T1, Low molecular weight phosphotyrosine protein phosphatase (Homo sapiens, UniProt P24666); assay: Inhibition of His-tagged human LMW-PTP expressed in Escherichia coli BL21 using pNPP as substrate incubated for 10 mins by microplate reader based spectrophotometric analysis
T1 sequence (P24666 whole entry): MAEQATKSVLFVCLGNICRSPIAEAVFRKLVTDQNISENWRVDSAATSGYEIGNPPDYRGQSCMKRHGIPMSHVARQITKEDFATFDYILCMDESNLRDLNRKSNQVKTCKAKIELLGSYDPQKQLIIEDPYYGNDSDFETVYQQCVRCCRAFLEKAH

[6] = target: Receptor-type tyrosine-protein phosphatase C (Homo sapiens, UniProt P08575); assay: Inhibition of CD45 (unknown origin)
[7] = target: Receptor-type tyrosine-protein phosphatase gamma (Homo sapiens, UniProt P23470); assay: Inhibition of PTPgamma (unknown origin)
[8] = target: Receptor-type tyrosine-protein phosphatase S (Homo sapiens, UniProt Q13332); assay: Inhibition of PTPsigma (unknown origin)
[9] = target: Receptor-type tyrosine-protein phosphatase mu (Homo sapiens, UniProt P28827); assay: Inhibition of PTPmu (unknown origin)
Receptor-type tyrosine-protein phosphatase mu, sequence (P28827 whole entry): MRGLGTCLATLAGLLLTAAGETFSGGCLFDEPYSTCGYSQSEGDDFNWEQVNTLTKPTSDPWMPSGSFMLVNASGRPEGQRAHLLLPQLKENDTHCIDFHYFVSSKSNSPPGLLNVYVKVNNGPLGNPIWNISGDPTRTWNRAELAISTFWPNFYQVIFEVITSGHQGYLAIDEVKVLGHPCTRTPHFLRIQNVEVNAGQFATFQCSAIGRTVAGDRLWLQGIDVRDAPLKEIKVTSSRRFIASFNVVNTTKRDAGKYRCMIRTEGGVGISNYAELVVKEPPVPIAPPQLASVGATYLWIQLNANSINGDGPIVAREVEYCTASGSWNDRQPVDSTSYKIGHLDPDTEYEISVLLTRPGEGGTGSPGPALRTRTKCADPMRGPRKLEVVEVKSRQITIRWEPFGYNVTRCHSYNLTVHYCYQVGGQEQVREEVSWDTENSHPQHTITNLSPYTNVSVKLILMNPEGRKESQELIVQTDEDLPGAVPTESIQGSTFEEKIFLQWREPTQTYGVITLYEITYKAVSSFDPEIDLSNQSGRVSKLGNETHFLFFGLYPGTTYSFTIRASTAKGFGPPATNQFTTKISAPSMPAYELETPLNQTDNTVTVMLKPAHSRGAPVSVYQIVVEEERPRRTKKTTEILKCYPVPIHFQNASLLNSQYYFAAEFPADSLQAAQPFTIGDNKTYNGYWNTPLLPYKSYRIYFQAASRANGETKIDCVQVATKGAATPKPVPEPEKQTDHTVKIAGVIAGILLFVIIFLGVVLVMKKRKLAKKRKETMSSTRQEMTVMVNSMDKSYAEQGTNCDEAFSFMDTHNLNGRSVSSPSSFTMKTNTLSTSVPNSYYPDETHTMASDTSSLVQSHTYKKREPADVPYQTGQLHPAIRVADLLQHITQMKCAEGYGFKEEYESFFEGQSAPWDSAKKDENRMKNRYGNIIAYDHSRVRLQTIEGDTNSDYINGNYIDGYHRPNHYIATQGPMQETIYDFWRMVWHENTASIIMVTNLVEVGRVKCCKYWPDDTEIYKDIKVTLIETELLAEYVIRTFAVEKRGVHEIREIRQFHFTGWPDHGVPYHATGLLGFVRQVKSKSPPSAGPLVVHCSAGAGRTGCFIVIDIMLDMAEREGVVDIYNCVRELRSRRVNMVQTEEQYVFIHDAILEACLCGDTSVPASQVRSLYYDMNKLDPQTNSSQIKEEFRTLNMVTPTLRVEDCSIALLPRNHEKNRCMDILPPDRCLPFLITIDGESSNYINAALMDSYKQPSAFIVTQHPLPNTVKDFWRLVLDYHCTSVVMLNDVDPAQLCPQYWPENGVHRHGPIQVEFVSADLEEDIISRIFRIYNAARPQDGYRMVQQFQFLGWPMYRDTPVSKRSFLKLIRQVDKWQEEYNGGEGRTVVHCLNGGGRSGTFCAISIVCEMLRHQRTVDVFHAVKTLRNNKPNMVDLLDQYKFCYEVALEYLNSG

[10] = target: Dual specificity protein phosphatase 6 (Homo sapiens, UniProt Q16828); assay: Inhibition of MKP3 (unknown origin)
Dual specificity protein phosphatase 6, sequence (Q16828 whole entry): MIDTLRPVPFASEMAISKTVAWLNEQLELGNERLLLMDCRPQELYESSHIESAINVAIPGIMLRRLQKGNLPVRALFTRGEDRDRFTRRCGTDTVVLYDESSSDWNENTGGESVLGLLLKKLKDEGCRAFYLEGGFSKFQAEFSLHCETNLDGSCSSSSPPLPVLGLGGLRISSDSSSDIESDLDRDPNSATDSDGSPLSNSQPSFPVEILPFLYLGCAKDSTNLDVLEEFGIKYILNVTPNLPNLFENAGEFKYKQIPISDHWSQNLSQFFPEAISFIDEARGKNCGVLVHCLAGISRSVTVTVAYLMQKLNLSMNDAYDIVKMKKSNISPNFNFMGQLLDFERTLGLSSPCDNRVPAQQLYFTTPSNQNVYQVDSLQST

[11] = target: Serine/threonine-protein phosphatase 5 (Homo sapiens, UniProt P53041); assay: Inhibition of PP5 (unknown origin)
Serine/threonine-protein phosphatase 5, sequence (P53041 whole entry): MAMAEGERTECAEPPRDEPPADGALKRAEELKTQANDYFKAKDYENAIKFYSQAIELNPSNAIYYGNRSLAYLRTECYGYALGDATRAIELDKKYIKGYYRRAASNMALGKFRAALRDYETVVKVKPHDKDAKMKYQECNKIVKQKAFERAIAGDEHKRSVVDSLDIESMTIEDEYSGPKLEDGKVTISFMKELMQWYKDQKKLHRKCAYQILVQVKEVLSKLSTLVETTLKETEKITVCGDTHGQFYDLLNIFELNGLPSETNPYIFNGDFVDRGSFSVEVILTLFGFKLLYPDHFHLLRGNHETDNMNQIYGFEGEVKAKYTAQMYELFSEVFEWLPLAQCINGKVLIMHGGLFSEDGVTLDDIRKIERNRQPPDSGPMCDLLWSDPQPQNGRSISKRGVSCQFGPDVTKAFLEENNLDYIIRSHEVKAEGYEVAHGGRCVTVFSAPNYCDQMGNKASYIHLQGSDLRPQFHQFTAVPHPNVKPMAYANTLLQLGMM

[12] = AUC(0 to 8 hrs) in CD-1 mouse plasma at 2 mg/kg, iv measured after 8 hrs by LC-MS/MS analysis; assay type: ADME, organism-based; parameters: dose 2 mg/kg, time 8 hrs, route iv; details: in vivo
[13] = Cmax in CD-1 mouse plasma at 10 mg/kg, po measured after 8 hrs by LC-MS/MS analysis; assay type: ADME, organism-based; parameters: dose 10 mg/kg, time 8 hrs, route po; details: mouse, in vivo, 8 h
[14] = Volume of distribution at steady state in CD-1 mouse plasma at 2 mg/kg, iv measured after 8 hrs by LC-MS/MS analysis; assay type: ADME, organism-based; details: in vivo
[15] = Half life in CD-1 mouse plasma at 10 mg/kg, po measured after 8 hrs by LC-MS/MS analysis; assay type: ADME, organism-based; details: in vivo
[16] = Oral bioavailability in CD-1 mouse plasma at 10 mg/kg measured after 8 hrs by LC-MS/MS analysis; assay type: ADME, organism-based; details: mouse, in vivo, po, 10 mg/kg, 8 h
[17] = Unbound Cmax in plasma of Sprague-Dawley rat at 3 mg/kg, po measured after 24 hrs by LC-MS/MS analysis; assay type: ADME, organism-based; details: in vivo

Tyrosine-protein phosphatase non-receptor type 13, sequence (Q12923 whole entry): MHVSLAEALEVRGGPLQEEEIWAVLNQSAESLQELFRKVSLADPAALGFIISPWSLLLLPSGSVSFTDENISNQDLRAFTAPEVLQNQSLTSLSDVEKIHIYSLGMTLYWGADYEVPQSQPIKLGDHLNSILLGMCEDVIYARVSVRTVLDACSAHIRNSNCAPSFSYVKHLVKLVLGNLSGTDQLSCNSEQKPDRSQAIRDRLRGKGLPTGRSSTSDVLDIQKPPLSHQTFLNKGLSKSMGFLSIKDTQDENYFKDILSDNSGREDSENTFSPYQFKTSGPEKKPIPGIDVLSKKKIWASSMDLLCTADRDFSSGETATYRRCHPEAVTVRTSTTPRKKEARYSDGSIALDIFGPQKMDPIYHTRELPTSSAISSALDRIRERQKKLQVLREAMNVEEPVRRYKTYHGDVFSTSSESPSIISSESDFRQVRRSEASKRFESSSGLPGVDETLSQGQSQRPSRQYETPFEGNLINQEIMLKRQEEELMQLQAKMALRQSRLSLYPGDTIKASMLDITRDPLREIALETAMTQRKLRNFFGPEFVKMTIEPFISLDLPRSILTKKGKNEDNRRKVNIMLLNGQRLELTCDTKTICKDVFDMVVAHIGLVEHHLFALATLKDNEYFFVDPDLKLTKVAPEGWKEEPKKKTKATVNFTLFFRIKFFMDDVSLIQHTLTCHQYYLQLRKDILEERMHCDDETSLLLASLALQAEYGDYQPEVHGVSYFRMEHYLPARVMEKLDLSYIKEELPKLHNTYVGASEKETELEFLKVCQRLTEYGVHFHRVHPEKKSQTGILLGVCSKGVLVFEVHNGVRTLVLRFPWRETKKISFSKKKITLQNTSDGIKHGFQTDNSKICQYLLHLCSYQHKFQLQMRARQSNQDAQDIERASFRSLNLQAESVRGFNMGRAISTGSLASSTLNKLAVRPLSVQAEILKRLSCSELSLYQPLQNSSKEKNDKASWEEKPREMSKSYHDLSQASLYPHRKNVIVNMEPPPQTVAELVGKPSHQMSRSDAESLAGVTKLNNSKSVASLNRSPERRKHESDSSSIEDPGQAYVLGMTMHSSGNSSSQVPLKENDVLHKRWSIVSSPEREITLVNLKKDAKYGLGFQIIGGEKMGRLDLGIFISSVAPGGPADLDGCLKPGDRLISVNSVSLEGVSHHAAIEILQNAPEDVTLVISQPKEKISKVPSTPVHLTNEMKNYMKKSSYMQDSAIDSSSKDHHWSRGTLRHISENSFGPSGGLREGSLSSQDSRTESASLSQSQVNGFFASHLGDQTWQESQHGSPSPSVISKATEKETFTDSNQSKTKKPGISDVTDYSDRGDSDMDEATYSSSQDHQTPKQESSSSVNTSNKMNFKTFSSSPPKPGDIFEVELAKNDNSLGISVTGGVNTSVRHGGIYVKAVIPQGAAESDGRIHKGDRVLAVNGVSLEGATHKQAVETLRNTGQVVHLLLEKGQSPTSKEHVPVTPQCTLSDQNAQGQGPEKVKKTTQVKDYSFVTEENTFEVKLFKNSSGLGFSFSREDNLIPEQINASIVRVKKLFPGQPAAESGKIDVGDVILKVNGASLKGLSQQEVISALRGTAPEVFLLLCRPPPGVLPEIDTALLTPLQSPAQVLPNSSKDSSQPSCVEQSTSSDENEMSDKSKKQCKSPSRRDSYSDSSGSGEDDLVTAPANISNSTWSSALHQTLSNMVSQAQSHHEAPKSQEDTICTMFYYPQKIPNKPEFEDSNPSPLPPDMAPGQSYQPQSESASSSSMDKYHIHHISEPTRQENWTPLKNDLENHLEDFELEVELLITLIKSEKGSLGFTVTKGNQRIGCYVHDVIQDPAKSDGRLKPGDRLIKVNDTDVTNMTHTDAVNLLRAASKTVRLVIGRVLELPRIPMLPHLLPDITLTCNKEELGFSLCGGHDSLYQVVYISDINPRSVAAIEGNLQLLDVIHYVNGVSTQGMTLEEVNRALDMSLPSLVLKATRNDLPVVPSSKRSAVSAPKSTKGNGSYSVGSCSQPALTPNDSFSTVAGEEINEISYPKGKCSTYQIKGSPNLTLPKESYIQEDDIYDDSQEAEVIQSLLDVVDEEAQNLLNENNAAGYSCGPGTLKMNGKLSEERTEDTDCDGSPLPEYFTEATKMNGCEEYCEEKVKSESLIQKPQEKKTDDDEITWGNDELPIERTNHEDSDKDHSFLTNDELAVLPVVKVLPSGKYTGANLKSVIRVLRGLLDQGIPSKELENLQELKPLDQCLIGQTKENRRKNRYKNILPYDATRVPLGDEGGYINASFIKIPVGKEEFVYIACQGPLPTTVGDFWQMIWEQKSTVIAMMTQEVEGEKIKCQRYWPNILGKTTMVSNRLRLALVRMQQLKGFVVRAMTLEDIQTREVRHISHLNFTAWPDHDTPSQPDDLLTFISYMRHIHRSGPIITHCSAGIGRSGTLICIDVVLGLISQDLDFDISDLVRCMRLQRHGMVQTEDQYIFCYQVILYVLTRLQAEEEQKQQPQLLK

Cc1c(Br)cc(NC(=O)NS(=O)(=O)O)cc1Br
IC50 [1]: > 10 µM
IC50 [2]: > 10 µM
IC50 [3]: > 10 µM
IC50 [4]: > 10 µM
IC50 [5]: 0.004 µM
IC50 [6]: > 10 µM
IC50 [7]: > 10 µM
IC50 [8]: > 10 µM
IC50 [9]: > 10 µM
IC50 [10]: > 10 µM
IC50 [11]: > 10 µM
AUC [12]: 15.1 µM·h
Cmax [13]: 9.69 µM
Vdss [14]: 0.42 L/kg
t1/2 [15]: 4.2 h
F [16]: 34%
fCmax [17]: 21 nM
